The test system of data set [1] is CD4^+ T cells combined with CD14^+ dendritic cells. The experiment in a line: Allogeneic mixed lymphocyte reaction (MLR), IL-2 and IFN-γ by ELISA. It is filed as cell-based, Human. The method, then:
Human peripheral CD14 positive monocytes were collected from a human donor and, subsequently, differentiated and matured into CD14^+ dendritic cells (DCs). Human CD4 positive T-cells were separately collected from another human donor. The collected CD4^+ T cells were combined with the CD14^+ DCs in a mixed lymphocyte reaction (MLR). In this Example, a tubulin binding agent was added, respectively, in the step of monocyte differentiation, in the step of dendritic cell maturation, and in the step of T-cell activation by combining the CD14^+ DCs with the CD4^+ T cells.
ISOLATION OF HUMAN CD4^+ T CELLS FROM ANOTHER DONOR'S PBMCs: PBMC cells were obtained from another human donor according to (1a)-(1d) above. CD4^+ T-cells were then isolated from these PBMCs according to steps (3a)-(3k) as follows: (3a) The number of the PBMC cells was determined. (3b) The cell suspension was centrifuged at 300×g for 10 min. The supernatant was then completely aspirated. (3c) The cell pellet was re-suspended in 40 μL of FACS buffer per 10^7 total cells. (3d) 10 μL of CD4^+ T Cell Biotin-Antibody Cocktail was added per 10^7 total cells. (3e) The mixture was well mixed and incubated for 5 min in refrigerator (at 2-8° C.). (3f) 30 μL of FACS buffer was added per 10^7 total cells, and 20 μL of CD4^+ T-Cell MicroBead Cocktail was added per 10^7 total cells. (3g) The mixture was well mixed and incubated for 10 min in refrigerator (at 2 to 8° C.). (3h) A column is placed in magnetic field of a suitable MACS Separator. (3i) The column is prepared by rinsing with 3 mL of buffer. (3j) The cell suspension was applied onto the column. The flow-through containing unlabeled cells, representing the enriched CD4^+ T cells, were collected. […]
ALLOGENEIC ACTIVATION OF T CELLS ASSESSED BY MLR ASSAY: Allogeneic Mixed Lymphocyte Reaction (MLR) assays were performed according to steps (4a)-(4d) as follows: (4a) The test article (e.g., plinabulin and other tubulin binding agents) were each diluted in RPMI 1640 medium according to one of Tables 7-9 and, subsequently, added at 50 μL/well in appropriate wells. […]
In general terms: In an ELISA, binding on a coated surface is turned into a signal by an enzyme label.

For data set [2] the following is noted: human; cited from earlier work.

On to `CC(C)(C)c1[nH]cnc1/C=c1\[nH]c(=O)/c(=C/c2ccccc2)[nH]c1=O` [Plinabulin, (3Z,6Z)-3-Benzylidene-6-{[5-(2-methyl-2-propanyl)-1H-imidazol-4-yl]methylene}-2,5-piperazinedione], for which the “IL2 secretion in MLR” value was “decrease in IL2 secretion” in data set [1] (CD14^+ monocytes treated at 1 or 3 μM during DC differentiation) and “increase in IL2 secretion” in data set [1] (DCs treated at 1 or 3 μM during DC maturation). For the same compound, the “MLR induced IL-2 secretion” value in data set [1] (treatment at ≥100 nM began when mature DCs were combined with CD4 T-cells, compared with nivolumab at 2 mg/ml) is on record as “significant increase in MLR induced IL-2 secretion, greater than that of nivolumab”. Besides, the plasma elimination half-life in data set [2] was 5 to 6 h.

(Values after US20210177952A1, “METHOD AND COMPOSITION FOR STIMULATING IMMUNE RESPONSE” (BeyondSpring Pharmaceuticals, Inc., priority 2018, published 2021).)
